A value given as a limit tells only on which side of the number the result lay.

The target of the first test is T1, F508del (Homo sapiens, UniProt P13569, DEL508-508).
T1 construct: expressed in transfected cells
T1 sequence (P13569 with tags, fused parts or gaps DEL508-508): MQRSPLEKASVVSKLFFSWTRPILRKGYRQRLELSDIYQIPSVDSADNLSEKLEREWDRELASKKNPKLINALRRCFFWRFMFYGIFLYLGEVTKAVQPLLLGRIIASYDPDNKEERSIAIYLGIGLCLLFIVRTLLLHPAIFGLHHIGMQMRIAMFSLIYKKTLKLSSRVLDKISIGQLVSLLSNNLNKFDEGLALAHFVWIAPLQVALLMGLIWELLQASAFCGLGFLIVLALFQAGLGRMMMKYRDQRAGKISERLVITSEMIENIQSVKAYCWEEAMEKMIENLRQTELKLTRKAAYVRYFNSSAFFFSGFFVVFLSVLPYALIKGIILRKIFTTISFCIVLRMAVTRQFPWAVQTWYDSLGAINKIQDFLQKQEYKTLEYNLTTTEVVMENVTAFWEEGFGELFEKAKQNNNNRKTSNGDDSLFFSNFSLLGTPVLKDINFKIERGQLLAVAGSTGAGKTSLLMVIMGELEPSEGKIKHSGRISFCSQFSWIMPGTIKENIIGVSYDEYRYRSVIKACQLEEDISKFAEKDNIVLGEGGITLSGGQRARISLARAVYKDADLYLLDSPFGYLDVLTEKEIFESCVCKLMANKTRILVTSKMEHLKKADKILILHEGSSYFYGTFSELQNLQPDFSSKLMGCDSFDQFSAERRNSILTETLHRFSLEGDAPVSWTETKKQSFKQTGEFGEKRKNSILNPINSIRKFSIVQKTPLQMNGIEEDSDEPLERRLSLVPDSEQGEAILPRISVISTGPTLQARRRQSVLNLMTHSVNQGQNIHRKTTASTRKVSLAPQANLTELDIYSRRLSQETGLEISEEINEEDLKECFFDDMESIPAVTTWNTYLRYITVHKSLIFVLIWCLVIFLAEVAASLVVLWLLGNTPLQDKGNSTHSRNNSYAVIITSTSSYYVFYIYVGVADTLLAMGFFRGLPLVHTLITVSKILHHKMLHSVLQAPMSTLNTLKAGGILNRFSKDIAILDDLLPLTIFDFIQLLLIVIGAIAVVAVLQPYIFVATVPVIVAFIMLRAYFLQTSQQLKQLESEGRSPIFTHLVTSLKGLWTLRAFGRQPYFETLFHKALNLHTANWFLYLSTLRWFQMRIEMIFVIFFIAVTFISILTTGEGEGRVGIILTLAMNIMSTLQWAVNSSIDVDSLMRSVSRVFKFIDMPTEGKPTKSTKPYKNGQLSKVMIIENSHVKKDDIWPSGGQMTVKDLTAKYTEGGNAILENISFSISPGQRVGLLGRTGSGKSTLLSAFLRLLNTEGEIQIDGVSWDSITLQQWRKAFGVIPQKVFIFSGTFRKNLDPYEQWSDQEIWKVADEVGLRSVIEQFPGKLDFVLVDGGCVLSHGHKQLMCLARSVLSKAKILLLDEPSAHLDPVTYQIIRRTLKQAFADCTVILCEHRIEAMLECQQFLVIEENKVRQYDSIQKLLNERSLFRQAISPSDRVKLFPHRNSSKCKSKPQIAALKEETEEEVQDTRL
Description: Protocol 2: FRET membrane potential optical assay (VIPR), identification of correction compounds. In kind it is cell-based. The following applies: F508del CFTR modulator activity; compounds of Table 1; read-out: EC30. The essentials: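 FRET read-out (CC2-DMPE donor, DiSBAC2(3) voltage-sensitive acceptor) of membrane depolarization on VIPR II. Corrector candidates incubated 16 hrs at 37° C. with NIH3T3 cells expressing F508del; temperature correction at 27° C. as positive control; stimulation by 10 μM forskolin, 20 μM genistein, chloride-free gluconate bath.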
As to `CC(C)COc1ccc(-c2ccc(C(=O)NS(=O)(=O)c3ccc[nH]c3=O)c(N3C[C@@H](C)CC3(C)C)n2)cc1` [Compound 2153, 6-(4-isobutoxyphenyl)-N-[(2-oxo-1H-pyridin-3-yl)sulfonyl]-2-[(4S)-2,2,4-trimethylpyrrolidin-1-yl]pyridine-3-carboxamide], the EC30 was under 3000 nM. Same read-out and setting: the same measure for `CC1CN(c2ncccc2C(=O)NS(=O)(=O)c2cccc(OCC(C)C3CCCCC3)n2)C(C)(C)C1` (stereo not drawn) [Compound 2019, N—[[6-(2-cyclohexylpropoxy)-2-pyridyl]sulfonyl]-2-(2,2,4-trimethylpyrrolidin-1-yl)pyridine-3-carboxamide]: under 3000 nM; for `CC1CN(c2ncccc2C(=O)NS(=O)(=O)c2cccc(OC3CCC4CCCCC4C3)n2)C(C)(C)C1` (stereo not drawn) [Compound 2211, N-[(6-decalin-2-yloxy-2-pyridyl)sulfonyl]-2-(2,2,4-trimethylpyrrolidin-1-yl)pyridine-3-carboxamide]: under 3000 nM; for `CCCOc1cccc(S(=O)(=O)NC(=O)c2cccnc2N2CC(C)CC2(C)C)n1` (stereo not drawn) [Compound 2528, N-[(6-propoxy-2-pyridyl)sulfonyl]-2-(2,2,4-trimethylpyrrolidin-1-yl)pyridine-3-carboxamide]: under 3000 nM.

With `COc1cccc(-c2ccc(C(=O)NS(=O)(=O)c3cccnc3N)c(N3C[C@@H](C)CC3(C)C)n2)n1` [Compound 2268, N-[(2-amino-3-pyridyl)sulfonyl]-6-(6-methoxy-2-pyridyl)-2-[(4S)-2,2,4-trimethylpyrrolidin-1-yl]pyridine-3-carboxamide], the EC30 was under 3000 nM. For the compound `COc1ccc(F)c(-c2ccc(C(=O)NS(=O)(=O)c3cccnc3N)c(N3C[C@@H](C)CC3(C)C)n2)c1` [Compound 2474, N-[(2-amino-3-pyridyl)sulfonyl]-6-(2-fluoro-5-methoxy-phenyl)-2-[(4S)-2,2,4-trimethylpyrrolidin-1-yl]pyridine-3-carboxamide], the EC30 was under 3000 nM. Same read-out and setting: in the case of `CC1CN(c2ncc(-c3cccc(Cl)c3)cc2C(=O)NS(=O)(=O)c2cccc(N)n2)C(C)(C)C1` (stereo not drawn) [Compound 2429, N-[(6-amino-2-pyridyl)sulfonyl]-5-(3-chlorophenyl)-2-(2,2,4-trimethylpyrrolidin-1-yl)pyridine-3-carboxamide] it was under 3000 nM; in that of `C[C@@H]1CN(c2nc(-c3cc(F)ccc3O)ccc2C(=O)NS(=O)(=O)c2cccnc2N)C(C)(C)C1` [Compound 2046, N-[(2-amino-3-pyridyl)sulfonyl]-6-(5-fluoro-2-hydroxy-phenyl)-2-[(4S)-2,2,4-trimethylpyrrolidin-1-yl]pyridine-3-carboxamide], under 3000 nM; in that of `C[C@@H]1CN(c2nc(-n3ccc(-c4ccccc4)n3)ccc2C(=O)NS(=O)(=O)c2cccnc2N)C(C)(C)C1` [Compound 2696], under 3000 nM. Still for that read-out and setting: in the case of `CC1CN(c2ncccc2C(=O)NS(=O)(=O)c2cccc(N3Cc4ccccc4C[C@H]3C(=O)O)n2)C(C)(C)C1` (stereo partly drawn) [Compound 2321, (3S)-2-[6-[[2-(2,2,4-trimethylpyrrolidin-1-yl)pyridine-3-carbonyl]sulfamoyl]-2-pyridyl]-3,4-dihydro-1H-isoquinoline-3-carboxylic acid] it was 3000 to 10000 nM.

As for `CC(C)(C)c1ccc(C(=O)NS(=O)(=O)c2cccc(N)n2)c(N2CCC(C3CCOCC3)C2(C)C)n1` (single isomer, unassigned) [Compound 2266, N-[(6-amino-2-pyridyl)sulfonyl]-6-tert-butyl-2-(2,2-dimethyl-3-tetrahydropyran-4-yl-pyrrolidin-1-yl)pyridine-3-carboxamide], the EC30 is under 3000 nM.

The test is the same for the next values; noted with them: Table 3; compounds of Table 1 as modulators of CFTR activity; protocol not stated.
For `Cc1cc(C)c(Oc2nc(C(C)(C)C)ccc2C(=O)NS(=O)(=O)c2ccccc2N)c(C)c1` [Compound 322, N-(2-aminophenyl)sulfonyl-6-tert-butyl-2-(2,4,6-trimethylphenoxy)pyridine-3-carboxamide], the 30% effect concentration (EC30) entry is on record as “+++ (“+++” means <3 uM)”. Regarding `Cc1cc(C)c(Cc2nn(C(C)(C)C)cc2C(=O)NS(=O)(=O)c2ccccc2)c(C)c1` [Compound 63, N-(benzenesulfonyl)-1-tert-butyl-3-[(2,4,6-trimethylphenyl)methyl]pyrazole-4-carboxamide], the EC30 result is on record as “+++ (“+++” means <3 uM)”. Same read-out and setting: the same measure for `Cc1ccc(Oc2nc3c(cc2C(=O)NS(=O)(=O)c2ccc[nH]c2=O)CCCC3(C)C)c(C)c1` [Compound 634, 2-(2,4-dimethylphenoxy)-8,8-dimethyl-N-[(2-oxo-1H-pyridin-3-yl)sulfonyl]-6,7-dihydro-5H-quinoline-3-carboxamide]: “+++ (“+++” means <3 uM)”; for `Cc1cccc(C)c1Cn1nc(-c2ccc(N3CCCCC3)nc2)cc1C(=O)NS(=O)(=O)c1ccccc1` [Compound 329, N-(benzenesulfonyl)-2-[(2,6-dimethylphenyl)methyl]-5-[6-(1-piperidyl)-3-pyridyl]pyrazole-3-carboxamide]: “+++ (“+++” means <3 uM)”; for `Cc1cc(C)c(Cc2oc(C(C)(C)C)nc2C(=O)NS(=O)(=O)c2cccc(N)c2)c(C)c1` [Compound 360, N-(3-aminophenyl)sulfonyl-2-tert-butyl-5-[(2,4,6-trimethylphenyl)methyl]oxazole-4-carboxamide]: “+++ (“+++” means <3 uM)”.

Take `COc1ncc(-c2ccc(C(=O)NS(=O)(=O)c3cccc(N)n3)c(Oc3c(C)cc(C)cc3C)n2)cc1C` [Compound 705, N-[(6-amino-2-pyridyl)sulfonyl]-6-(6-methoxy-5-methyl-3-pyridyl)-2-(2,4,6-trimethylphenoxy)pyridine-3-carboxamide]: the EC30 entry was “+++ (“+++” means <3 uM)”. On the same count and under the same terms, the same measure for `Cc1cc(C)c(Cn2cc(C(C)(C)C)nc2C(=O)NS(=O)(=O)c2cccc(N)c2)c(C)c1` [Compound 255, N-(3-aminophenyl)sulfonyl-4-tert-butyl-1-[(2,4,6-trimethylphenyl)methyl]imidazole-2-carboxamide]: “+++ (“+++” means <3 uM)”; for `CC(C)c1ccc(-c2ccc(C(=O)NS(=O)(=O)c3ccc[nH]c3=O)c(N3[C@H](C)CC[C@@H]3C)n2)cc1` [Compound 589, 2-[(2S,5R)-2,5-dimethylpyrrolidin-1-yl]-6-(4-isopropylphenyl)-N-[(2-oxo-1H-pyridin-3-yl)sulfonyl]pyridine-3-carboxamide]: “+++ (“+++” means <3 uM)”. Same read-out and setting: the same measure for `CC1CCN(c2nc3c(cc2C(=O)NS(=O)(=O)c2cccc(N)n2)CCCC3(C)C)CC1` [Compound 750, N-[(6-amino-2-pyridyl)sulfonyl]-8,8-dimethyl-2-(4-methyl-1-piperidyl)-6,7-dihydro-5H-quinoline-3-carboxamide]: “+++ (“+++” means <3 uM)”. As to `C[C@H](c1ccccc1)n1nc(C(C)(C)C)cc1C(=O)NS(=O)(=O)c1cccc(N)c1` [Compound 540, N-(3-aminophenyl)sulfonyl-5-tert-butyl-2-[1(1R)-1-phenylethyl]pyrazole-3-carboxamide], the EC30 result is on record as “+ (“+” means greater than 10 uM)”. `CCCOc1cc(-c2ccc(C(=O)NS(=O)(=O)c3cccc(N)n3)c(N3CC(C)CC3(C)C)n2)ccc1Cl` (stereo not drawn) [Compound 644, N-[(6-amino-2-pyridyl)sulfonyl]-6-(4-chloro-3-propoxy-phenyl)-2-(2,2,4-trimethylpyrrolidin-1-yl)pyridine-3-carboxamide]: the EC30 entry was “+++ (“+++” means <3 uM)”. For `CC(C)Cn1cc(-c2ccc(C(=O)NS(=O)(=O)c3cccc(N)n3)c(N3CC(C)CC3(C)C)n2)cn1` (stereo not drawn) [Compound 631, N-[(6-amino-2-pyridyl)sulfonyl]-6-(1-isobutylpyrazol-4-yl)-2-(2,2,4-trimethylpyrrolidin-1-yl)pyridine-3-carboxamide], the EC30 result is listed as “+++ (“+++” means <3 uM)”. In the case of `COc1cccc(S(=O)(=O)NC(=O)C2c3ccccc3CN2Cc2c(C)cc(C)cc2C)c1` (stereo not drawn) [Compound 16, N-(3-methoxyphenyl)sulfonyl-2-[(2,4,6-trimethylphenyl)methyl]isoindoline-1-carboxamide], the EC30 result is given as “+++ (“+++” means <3 uM)”. Regarding `Cc1cc(C)c(Oc2cc(C(C)(C)C)ccc2C(=O)NS(=O)(=O)c2cccc(N)c2)c(C)c1` [Compound 224, N-(3-aminophenyl)sulfonyl-4-tert-butyl-2-(2,4,6-trimethylphenoxy)benzamide], the concentration for an effect of 30% (EC30) result is “+++ (“+++” means <3 uM)”. In the case of `COc1cccc2c1cc(C(=O)NS(=O)(=O)c1ccncc1)n2Cc1c(C)cc(C)cc1C` [Compound 36, 4-methoxy-N-(4-pyridylsulfonyl)-1-[(2,4,6-trimethylphenyl)methyl]indole-2-carboxamide], the EC30 result is reported as “+++ (“+++” means <3 uM)”. `Cc1cc(C)c(Cc2ccc(C(C)(C)C)nc2C(=O)NS(=O)(=O)c2ccccc2)c(C)c1` [Compound 22, N-(benzenesulfonyl)-6-tert-butyl-3-[(2,4,6-trimethylphenyl)methyl]pyridine-2-carboxamide]: the EC30 entry is “+++ (“+++” means <3 uM)”. Turning to `COc1cccc(S(=O)(=O)NC(=O)c2ccc(C(C)(C)C)nc2-c2ccc(C)cc2)n1` [Compound 75, 6-tert-butyl-N-[(6-methoxy-2-pyridyl)sulfonyl]-2-(p-tolyl)pyridine-3-carboxamide], the EC30 entry is “++ (“++” means between 3 uM and 10 uM)”. The same measure, in the same setting: in the case of `CCc1cccc2c1CN(Cc1c(C)cc(C)cc1C)C2C(=O)NS(=O)(=O)c1cccc(N)c1` (stereo not drawn) [Compound 30, N-(3-aminophenyl)sulfonyl-4-ethyl-2-[(2,4,6-trimethylphenyl)methyl]isoindoline-1-carboxamide] it was “+++ (“+++” means <3 uM)”. Same read-out and setting: in the case of `COc1cccc(-c2ccc(C(=O)NS(=O)(=O)c3cccc(N)n3)c(Oc3c(C)cc(C)cc3C)n2)c1OC` [Compound 485, N-[(6-amino-2-pyridyl)sulfonyl]-6-(2,3-dimethoxyphenyl)-2-(2,4,6-trimethylphenoxy)pyridine-3-carboxamide] it was “+++ (“+++” means <3 uM)”.

The values are drawn from patent publication US10758534B2 (Vertex Pharmaceuticals Incorporated, priority 2014, dated 2020).
